Experimental data reported in patent publication US20070197432A1, “Peptides for preventing, diagnosing and treating animal and/or human leptospirosis” (priority 2002, published 2007).
No end group written: not given here.

How the values were obtained:
[1] = tested on: PP peptide; assay: Immunization of mice with PP peptide coupled to KLH, anti-PP IgG1/IgG2A ELISA; assay type: in vivo
Experimental: A batch of 5 mice was formed. Two injections were administered subcutaneously, two weeks apart. The 1st injection consists of 10 μg of PP peptide coupled to KLH, with complete Freund's adjuvant, in a volume of 200 μl (v/v). The 2nd injection consists of 10 μg of PP peptide coupled to KLH, with incomplete Freund's adjuvant, in a volume of 200 μl (v/v). This trial was carried out twice.
In parallel, a batch of 5 mice given nothing is used as a control.
A blood sample was taken two weeks after the second injection for serological monitoring.
The anti-PP antibodies produced in the mice are titered by means of an ELISA technique either on individual serological samples or on pools of several sera. The PP antigen is adsorbed in Immulon 4 plates (Dynatech) at a rate of 500 ng of PP per well diluted in 10 mM sodium carbonate buffer, pH=9.4.
After an overnight period at 4° C., the plates are washed with PBS containing 0.2% tween20, and then saturated with a solution of 1% BSA in TNE (50 mM Tris, 150 mM NaCl, 1 mM EDTA, pH 7.4) for 60 min at 37° C. […] The colored reaction is read in a spectrophotometer at 405 nm.
The results of the anti-PP IgG1 antibody response, expressed as corrected OD, of the immunization trials 1 and 2 with the PP peptide coupled to KLH are given in FIG. 1. […]

[2] = tested on: Leptospira interrogans sl serovar canicola; assay: Trial 1: gerbils immunized with PP-KLH, 10^−2.5 canicola challenge; assay type: in vivo, gerbil
Experimental: An immunization/challenge protocol was carried out in order to evaluate the protection that can be provided by the PP peptide (SEQ ID No. 1) coupled to the KLH protein.
This construct is administered subcutaneously without adjuvant, with PBS as a negative control (batch 2).
Batch 1: 10 gerbils, 2 injections of 30 μg of PP-KLH in 300 μl, subcutaneously.
Batch 2: 10 gerbils, 2 injections of PBS in 300 μl.
The two injections in a volume of 300 μl were administered subcutaneously, two weeks apart. A challenge by intraperitoneal injection of 0.5 ml of a canicola culture with a titer of 90 to 100 TU (turbidimetry) diluted to 10^−2.5 was administered two weeks after the second injection. • Antigenic response: Monitoring by ELISA of the immune response of the gerbils against the PP peptide

[3] = tested on: Leptospira interrogans sl serovar canicola; assay: Dogs immunized with PP-KLH, canicola challenge: cultures of plasma, urine and kidney samples; assay type: in vivo, dog
Experimental: The animals are given a challenge at a rate of one virulent culture of 4 to 6 days. For an immunized batch and a control batch, each animal received, in each eye, 0.3 ml of the culture having a titer of 120 TU (i.e. 2×10^8 leptospires per ml) and, intraperitoneally, 4 ml of the same culture diluted ten-fold.
The presence of leptospires was studied jointly by PCR (PCR specific for pathogenic leptospires) and by culturing, in the urine at D0, D10, D14, D18, D25 and D41 and in the kidney samples from each animal at the end of the trial at […].
Moreover, the bacteriological results were quantified through the setting up of a coefficient: • by immediate culturing. A single live leptospire can give a positive culture. A relative estimation of the bacterial concentration is expressed by means of a coefficient of 3 when a culture has developed in the third serial dilution prepared from the sample. • by PCR on frozen samples. […] A coefficient of 1 was assigned to a PCR with a weak signal and a coefficient of 2 to a strongly positive PCR.

[4] = tested on: Leptospira interrogans sl serovar canicola; assay: as above; assay type: in vivo, dog; remark: listed apart in the source

For “PP-KLH: PP peptide with cysteine added at the N-terminal position, coupled via sulfo-MBS to KLH carrier protein (keyhole limpet hemocyanin) (KAKPVQKLDDDDDGDDTYKEERHNK; not fully specified (N-terminus))”, the immunogenicity [1] was “very immunogenic”, the “anti-PP IgG2A antibody response” value ([1]; 2 s.c. injections of 10 μg with Freund's adjuvant) was “high but less substantial than the anti-PP IgG1 response” and the Mortality rate ([2]; 10^−2.5 canicola challenge) was 6/10. For the same substance, the Survival rate ([2]; 10^−2.5 canicola challenge) was 4/10, the gerbils alive ([2]; 10^−2.5 canicola challenge, D4) was 10 and the gerbils alive ([2]; 10^−2.5 canicola challenge, D5) was 10. The gerbils alive ([2]; 10^−2.5 canicola challenge, D6) was 7, the gerbils alive ([2]; 10^−2.5 canicola challenge, D7) was 5 and the gerbils alive ([2]; 10^−2.5 canicola challenge, D8) was 4. The gerbils alive ([2]; 10^−2.5 canicola challenge, D9) was 4, the gerbils alive ([2]; 10^−2.5 canicola challenge, D10) was 4 and the gerbils alive ([2]; 10^−2.5 canicola challenge, D11) was 4. For the same substance, the gerbils alive ([2]; 10^−2.5 canicola challenge, D30) was 4, the gerbils alive ([2]; 10^−2.5 canicola challenge, before challenge) was 10 and the gerbils alive ([2]; 10^−2.5 canicola challenge, day of challenge) was 10. The Survival rate ([2]; 10^−2.5 canicola challenge, listed as PP peptide coupled to the KLH protein) was 4 of the 10, the “p, log-rank test versus control” value ([2]; Experiment 1, survival) was <7.10^−2 and the positive cultures/dogs ([3]; Plasma, D0) was 0/6. The positive cultures/dogs ([3]; Plasma, D3) was 6/6, the positive cultures/dogs ([3]; Plasma, D7) was 0/6 and the positive cultures/dogs ([3]; Urine, D14) was 2/6. The positive cultures/dogs ([3]; Urine, D18) was 3/6, the positive cultures/dogs ([3]; Urine, D25) was 4/6 and the “renal carrier status at the time of euthanasia” value ([3]; detected both by culturing and by PCR, both groups) was “renal carriers”. The “excretion of leptospires in the urine” value ([3]; immunized versus control dogs, cultures and PCRs) was “becomes apparent later, or at a lower level”, the positive cultures/dogs ([4]; Kidneys, D41) was 5/6 and the positive cultures/dogs ([4]; Urine, D7) was 3/6.
